# Test results published in patent US10124004B2, “Pyrido[3,4-d]pyrimidine derivative and pharmaceutically acceptable salt thereof” (Teijin Pharma Limited, priority 2015, dated 2018).
# Assays:
# CDK4/cyclin D3 = target: T1, CDK4/cyclin D3 (Homo sapiens, UniProt P11802); experiment: Human CDK4/cyclin D3 inhibitory activity (QS S Assist CDK4/Cyclin D3_FP Kit, IMAP fluorescence polarization); assay type: biochemical; conditions: Human CDK4/cyclin D3 inhibitory activity; read-out: CDK4 Activity symbol
# T1 construct: purchased Carna Biosciences, Inc. QS S Assist CDK4/Cyclin D3_FP Kit
# T1 sequence (P11802 whole entry): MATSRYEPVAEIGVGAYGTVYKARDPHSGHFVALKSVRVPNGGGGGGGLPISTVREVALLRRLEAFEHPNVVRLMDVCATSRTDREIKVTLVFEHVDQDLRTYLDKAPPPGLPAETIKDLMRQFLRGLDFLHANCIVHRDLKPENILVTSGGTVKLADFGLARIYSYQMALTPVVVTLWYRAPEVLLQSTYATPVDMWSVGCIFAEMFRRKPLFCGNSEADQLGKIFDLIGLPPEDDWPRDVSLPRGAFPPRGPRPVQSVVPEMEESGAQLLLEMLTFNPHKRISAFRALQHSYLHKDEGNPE
# T1 sequence (P30281 whole entry partner): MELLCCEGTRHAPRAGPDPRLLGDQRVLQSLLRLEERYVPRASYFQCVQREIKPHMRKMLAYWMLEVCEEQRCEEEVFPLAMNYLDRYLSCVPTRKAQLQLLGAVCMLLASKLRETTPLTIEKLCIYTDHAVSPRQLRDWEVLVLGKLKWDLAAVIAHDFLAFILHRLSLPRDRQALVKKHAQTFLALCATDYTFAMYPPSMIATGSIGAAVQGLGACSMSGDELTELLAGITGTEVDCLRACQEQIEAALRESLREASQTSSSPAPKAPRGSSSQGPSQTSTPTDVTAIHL
# Procedure, shortened: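 IMAP fluorescence-polarization kinase assay with kit ATP/substrate/metal mix and 12.5 to 25 ng/well enzyme in 20 mM HEPES pH 7.4, 0.01% Tween20, 2 mM DTT. Reaction ran 45 min at room temperature, then binding reagent was added for 30 min in the dark. IC50 was taken from dose-response fits of percent inhibition.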
# CDK2/cyclin A2 = target: T2, CDK2/cyclin A2 (Homo sapiens, UniProt P24941); experiment: Human CDK2/cyclin A2 inhibitory activity (QS S Assist CDK2/Cyclin A2_FP Kit, IMAP fluorescence polarization); assay type: biochemical; conditions: Human CDK2/cyclin A2 inhibitory activity; read-out: CDK2 Activity symbol
# T2 construct: purchased Carna Biosciences, Inc. QS S Assist CDK2/Cyclin A2_FP Kit
# Procedure, shortened: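 Kinase activity read as fluorescence polarization (485/535 nm) after phosphorylated fluorescent substrate binds IMAP reagent (30 min, RT, dark). Enzyme (2.5 ng/well) reacted 60 min at RT with ATP/substrate/metal in HEPES pH 7.4 buffer with Tween 20 and DTT; no-enzyme wells define 0% activity; IC50 by curve fit.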
Compound,IC50 (CDK4/cyclin D3) [µM],IC50 (CDK2/cyclin A2) [µM]
CC(=O)NCCc1ccc(Nc2ncc3cc(C(F)F)nc(NC(C)C)c3n2)nc1 [Compound 150],< 0.01,0.01 to 0.1
CC(C)Nc1nc(C(F)F)cc2cnc(Nc3ccc(CCNS(C)(=O)=O)cn3)nc12 [Compound 151],< 0.01,0.01 to 0.1
CC(=O)NCCCc1ccc(Nc2ncc3cc(C(F)F)nc(NC(C)C)c3n2)nc1 [Compound 152],< 0.01,0.01 to 0.1
CC(C)Nc1nc(C(F)F)cc2cnc(Nc3ccc(CCCNS(C)(=O)=O)cn3)nc12 [Compound 153],< 0.01,0.01 to 0.1
CC(C)Nc1nc(C(F)F)cc2cnc(Nc3ccc(CCC(C)(C)O)cn3)nc12 [Compound 154],< 0.01,≥ 0.1
CC(C)Nc1nc(C(F)F)cc2cnc(Nc3ccc(OCCO)cn3)nc12 [Compound 155],< 0.01,0.01 to 0.1
CC(C)Nc1nc(C(F)F)cc2cnc(Nc3ccc(OCCCO)cn3)nc12 [Compound 156],< 0.01,≥ 0.1
Cc1ccc(Nc2ncc3cc(C(F)F)nc(NC(C)C)c3n2)nc1 [Compound 157],0.01 to 0.1,≥ 0.1
Cc1nnc(NCc2ccc(Nc3ncc4cc(C(F)F)nc(NC(C)C)c4n3)nc2)[nH]1 [Compound 158],0.01 to 0.1,≥ 0.1
CC(C)Nc1nc(C(F)F)cc2cnc(Nc3ccc(C4CCS(=O)(=O)CC4)cn3)nc12 [Compound 159],< 0.01,≥ 0.1
CC(C)Nc1nc(C(F)F)cc2cnc(Nc3ccc(C4CCOCC4=O)cn3)nc12 (stereo not drawn) [Compound 161],< 0.01,0.01 to 0.1
CC(C)Nc1nc(C(F)F)cc2cnc(Nc3ccc(CN(C4CCOC4)S(C)(=O)=O)cn3)nc12 (stereo not drawn) [Compound 162],0.01 to 0.1,≥ 0.1
CC(C)Nc1nc(C(F)F)cc2cnc(Nc3ncc(N4CCNCC4)cn3)nc12 [Compound 163],< 0.01,≥ 0.1
CC(C)Nc1nc(C(F)F)cc2cnc(Nc3ccc(CCCO)cn3)nc12 [Compound 164],< 0.01,0.01 to 0.1
CC(C)Nc1nc(C(F)F)cc2cnc(Nc3ccc(CCCN4CCCC4=O)cn3)nc12 [Compound 167],< 0.01,≥ 0.1
CC(C)Nc1nc(C(F)F)cc2cnc(Nc3ccc(CCCN4CCCCS4(=O)=O)cn3)nc12 [Compound 170],< 0.01,≥ 0.1
CC(C)Nc1nc(C(F)F)cc2cnc(Nc3ccc(N4CCC(O)CC4)nn3)nc12 [Compound 171],< 0.01,0.01 to 0.1
CC(=O)N1CCC(c2ccc(Nc3ncc4cc(C(F)F)nc(NC(C)C)c4n3)nc2)CC1 [Compound 178],< 0.01,≥ 0.1
CC(C)Nc1nc(C(F)F)cc2cnc(Nc3ccc(C4CCN(S(C)(=O)=O)CC4)cn3)nc12 [Compound 179],0.01 to 0.1,≥ 0.1
CC(C)Nc1nc(C(F)F)cc2cnc(Nc3ccc(N4CCNC(C)(C)C4)cn3)nc12 [Compound 181],< 0.01,0.01 to 0.1
COCC(C)(C)Nc1nc([C@@H](C)O)cc2cnc(Nc3ccc(CN4CCNC(=O)C4)cn3)nc12 [Compound 182],0.01 to 0.1,≥ 0.1

Compound,IC50 (CDK4/cyclin D3) [µM],IC50 (CDK2/cyclin A2) [µM]
CC(C)Nc1nc(C(F)F)cc2cnc(Nc3ccc(N4C[C@H](O)CC4=O)cn3)nc12 [Compound 183],< 0.01,0.01 to 0.1
CC(C)Nc1nc(C(F)F)cc2cnc(Nc3ccc(N4C[C@@H](O)CC4=O)cn3)nc12 [Compound 184],< 0.01,0.01 to 0.1
CC(C)Nc1nc(C(F)F)cc2cnc(Nc3ccc(CN(C)C(N)=O)cn3)nc12 [Compound 185],< 0.01,0.01 to 0.1
CCNC(=O)NCc1ccc(Nc2ncc3cc(C(F)F)nc(NC(C)C)c3n2)nc1 [Compound 186],0.01 to 0.1,≥ 0.1
CC(C)Nc1nc(C(F)F)cc2cnc(Nc3ccc(CNS(N)(=O)=O)cn3)nc12 [Compound 187],0.01 to 0.1,≥ 0.1
CC(C)Nc1nc(C(F)F)cc2cnc(Nc3ccc(-c4cnn(C)c4)cn3)nc12 [Compound 188],0.01 to 0.1,≥ 0.1
CC(C)Nc1nc(C(F)F)cc2cnc(Nc3ccc(CN4CCCC4C(=O)O)cn3)nc12 (stereo not drawn) [Compound 189],< 0.01,0.01 to 0.1
CC(C)Nc1nc(C(F)F)cc2cnc(Nc3ccc(N4CCC(C(C)(C)O)CC4)nn3)nc12 [Compound 191],< 0.01,0.01 to 0.1
COCC(C)(C)Nc1nc([C@@H](C)O)cc2cnc(Nc3ccc(CCCN4CCOCC4=O)cn3)nc12 [Compound 193],0.01 to 0.1,≥ 0.1
CC(C)Nc1nc(C(F)F)cc2cnc(Nc3ccc(CN4CCCCC4C(=O)O)cn3)nc12 (stereo not drawn) [Compound 194],< 0.01,0.01 to 0.1
"COCC(C)(C)Nc1nc([C@@H](C)O)cc2cnc(Nc3ccc(N4CCNCC4)cn3)nc12 [Compound 195, (R)-1-(8-(l-methoxy-2-methylpropan-2-ylamino)-2-(5-(piperazin-1-yl)pyridin-2-ylamino)pyrido[3,4-d]pyrimidin-6-yl)ethanol]",< 0.01,≥ 0.1
COCC(C)(C)Nc1nc([C@@H](C)O)cc2cnc(Nc3ccc(CN4CCC(C(C)(C)O)CC4)cn3)nc12 [Compound 196],< 0.01,≥ 0.1
COCC(C)(C)Nc1nc([C@@H](C)O)cc2cnc(Nc3ccc(CN4CCC(C(=O)O)CC4)cn3)nc12 [Compound 197],0.01 to 0.1,≥ 0.1
COCC(C)(C)Nc1nc([C@@H](C)O)cc2cnc(Nc3ccc(CN4CCOCC4=O)cn3)nc12 [Compound 198],0.01 to 0.1,≥ 0.1
COCC(C)(C)Nc1nc([C@@H](C)O)cc2cnc(Nc3ccc(N4CCC(O)CC4)nn3)nc12 [Compound 202],0.01 to 0.1,≥ 0.1
CC(C)Nc1nc(C(F)F)cc2cnc(Nc3ccc(C4=CC(=O)NCC4)cn3)nc12 [Compound 203],< 0.01,0.01 to 0.1
COCC(C)(C)Nc1nc([C@@H](C)O)cc2cnc(Nc3ccc(N4CCOCC4)cn3)nc12 [Compound 204],< 0.01,≥ 0.1
COCC(C)(C)Nc1nc([C@@H](C)O)cc2cnc(Nc3ccc(N4CCNCC4=O)cn3)nc12 [Compound 206],< 0.01,≥ 0.1
COCC(C)(C)Nc1nc([C@@H](C)O)cc2cnc(Nc3ccc(OCCN(C)C)cn3)nc12 [Compound 208],< 0.01,≥ 0.1
CC(C)Nc1nc(C(F)F)cc2cnc(Nc3ccc(-c4cn[nH]c4)cn3)nc12 [Compound 209],0.01 to 0.1,≥ 0.1
CC(C)Nc1nc(C(F)F)cc2cnc(Nc3ccc(-n4cccn4)cn3)nc12 [Compound 210],0.01 to 0.1,≥ 0.1

# The remaining lines, values ahead:
IC50 (CDK4/cyclin D3) [µM],IC50 (CDK2/cyclin A2) [µM],Compound
< 0.01,≥ 0.1,CC(C)Nc1nc(C(F)F)cc2cnc(Nc3ccc(CN4CCCC4=O)cn3)nc12 [Compound 165]
< 0.01,0.01 to 0.1,CC(C)Nc1nc(C(F)F)cc2cnc(Nc3ccc(CN4CCOCC4=O)cn3)nc12 [Compound 166]
< 0.01,0.01 to 0.1,CC(C)Nc1nc(C(F)F)cc2cnc(Nc3ccc(CCCN4CCOCC4=O)cn3)nc12 [Compound 168]
< 0.01,0.01 to 0.1,CC(C)Nc1nc(C(F)F)cc2cnc(Nc3ccc(C(=O)N4CCOCC4)cn3)nc12 [Compound 169]
0.01 to 0.1,≥ 0.1,CO[C@H](C)c1cc2cnc(Nc3ccc(CN4CCOCC4)cn3)nc2c(NC(C)C)n1 [Compound 172]
< 0.01,0.01 to 0.1,CC(C)Nc1nc(C(F)F)cc2cnc(Nc3ccc(CN4CCOCCC4=O)cn3)nc12 [Compound 173]
< 0.01,0.01 to 0.1,CC(C)Nc1nc(C(F)F)cc2cnc(Nc3ccc(CN4CCNC(C)(C)C4)cn3)nc12 [Compound 174]
< 0.01,0.01 to 0.1,CC(C)Nc1nc(C(F)F)cc2cnc(Nc3ccc(CN4CCNC5(CC5)C4)cn3)nc12 [Compound 175]
0.01 to 0.1,≥ 0.1,CO[C@H](C)c1cc2cnc(Nc3ccc(CN4CCNC(=O)C4)cn3)nc2c(NC(C)C)n1 [Compound 176]
< 0.01,0.01 to 0.1,CC(C)Nc1nc(C(F)F)cc2cnc(Nc3ccc(CN4CCCCC4)cn3)nc12 [Compound 177]
0.01 to 0.1,≥ 0.1,COCC(C)(C)Nc1nc([C@@H](C)O)cc2cnc(Nc3ccc(CN4CCOCC4)cn3)nc12 [Compound 180]
< 0.01,0.01 to 0.1,CC(C)Nc1nc(C(F)F)cc2cnc(Nc3ccc(CN4CCC(C(=O)O)C4)cn3)nc12 (stereo not drawn) [Compound 190]
0.01 to 0.1,≥ 0.1,CO[C@H](C)c1cc2cnc(Nc3ccc(CCCN4CCOCC4=O)cn3)nc2c(NC(C)C)n1 [Compound 192]
0.01 to 0.1,≥ 0.1,CO[C@H](C)c1cc2cnc(Nc3ccc(CN4CCOCC4=O)cn3)nc2c(NC(C)C)n1 [Compound 199]
< 0.01,≥ 0.1,CO[C@H](C)c1cc2cnc(Nc3ccc(CN4CCC(C(C)(C)O)CC4)cn3)nc2c(NC(C)C)n1 [Compound 200]
0.01 to 0.1,≥ 0.1,CO[C@H](C)c1cc2cnc(Nc3ccc(N4CCC(O)CC4)nn3)nc2c(NC(C)C)n1 [Compound 201]
< 0.01,0.01 to 0.1,CC(C)Nc1nc(C(F)F)cc2cnc(Nc3ccc(CN4CCNCC4=O)cn3)nc12 [Compound 205]
< 0.01,≥ 0.1,CO[C@H](C)c1cc2cnc(Nc3ccc(N4CCNCC4=O)cn3)nc2c(NC(C)C)n1 [Compound 207]
